{"source": "patent US9427415B2", "about": "“Methods and compositions for modifying sensorial perception” (The Procter & Gamble Company, priority 2014, dated 2016)", "key": {"TRPA1V1": {"system": "TRPA1V1", "test": "Intracellular calcium (Fluo-4, FLIPR) activation of TRPA1V1 cells (co-expressing TRPA1 and TRPV1) by GRAS compounds;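 also: HEK293 cells co-expressing TRPA1 and TRPV1, fluorescence read at 488/514 nm after baseline subtraction, recorded every 2 s over 10 min, ionomycin 10 µM and buffer as controls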", "format": "cell-based, human"}, "human TRPA1": {"biological_target": "T1, human TRPA1 (Homo sapiens, UniProt O75762, K186N/R3C/R58T)", "T1 construct": "expressed in transfected cells; pcDNA3 control cells", "T1 sequence (O75762 whole entry R3C/R58T/K186N)": "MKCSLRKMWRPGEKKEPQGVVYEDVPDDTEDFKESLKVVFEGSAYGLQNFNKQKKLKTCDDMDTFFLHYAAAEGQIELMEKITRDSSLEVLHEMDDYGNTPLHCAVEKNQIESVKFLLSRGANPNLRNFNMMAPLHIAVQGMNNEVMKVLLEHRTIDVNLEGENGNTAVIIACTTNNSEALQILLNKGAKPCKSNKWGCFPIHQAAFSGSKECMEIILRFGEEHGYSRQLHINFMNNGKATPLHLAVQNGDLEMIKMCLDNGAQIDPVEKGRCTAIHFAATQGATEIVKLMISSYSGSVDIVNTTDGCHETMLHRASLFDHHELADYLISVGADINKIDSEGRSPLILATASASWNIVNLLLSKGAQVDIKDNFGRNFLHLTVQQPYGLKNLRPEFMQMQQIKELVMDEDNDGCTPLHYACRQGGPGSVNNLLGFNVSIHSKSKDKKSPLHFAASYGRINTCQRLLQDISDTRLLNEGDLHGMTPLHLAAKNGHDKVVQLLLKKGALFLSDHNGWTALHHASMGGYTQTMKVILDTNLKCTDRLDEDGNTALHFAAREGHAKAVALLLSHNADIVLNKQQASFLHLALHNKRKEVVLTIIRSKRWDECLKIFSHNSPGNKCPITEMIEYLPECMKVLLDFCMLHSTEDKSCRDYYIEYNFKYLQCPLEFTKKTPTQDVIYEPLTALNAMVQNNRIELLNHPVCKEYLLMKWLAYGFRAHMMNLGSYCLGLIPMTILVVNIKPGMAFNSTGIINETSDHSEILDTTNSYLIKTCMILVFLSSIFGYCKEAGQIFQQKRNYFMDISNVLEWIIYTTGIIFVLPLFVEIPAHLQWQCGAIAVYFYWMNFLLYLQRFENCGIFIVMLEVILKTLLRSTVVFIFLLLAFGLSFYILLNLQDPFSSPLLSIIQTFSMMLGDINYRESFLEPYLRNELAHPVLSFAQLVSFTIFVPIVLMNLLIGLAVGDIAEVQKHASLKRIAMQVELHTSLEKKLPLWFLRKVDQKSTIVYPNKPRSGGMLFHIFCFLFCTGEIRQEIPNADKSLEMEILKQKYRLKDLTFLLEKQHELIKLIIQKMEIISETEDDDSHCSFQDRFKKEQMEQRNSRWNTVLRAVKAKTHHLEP", "test": "Intracellular calcium (Fluo-4, FLIPR) activation of TRPA1 cells by GRAS compounds;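 also: TRPA1-expressing cells, fluorescence read on a FLIPR Tetra (ex 488 nm, em 514 nm) every 2 s for 10 min after compound addition, baseline subtracted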", "format": "cell-based", "settings": "relative to AITC 30 μM"}, "human TRPV1": {"biological_target": "T2, human TRPV1 (Homo sapiens, UniProt Q8NER1, M315I/T336M)", "T2 construct": "expressed in transfected cells; pcDNA3 control cells", "T2 sequence (Q8NER1 whole entry M315I/T336M)": "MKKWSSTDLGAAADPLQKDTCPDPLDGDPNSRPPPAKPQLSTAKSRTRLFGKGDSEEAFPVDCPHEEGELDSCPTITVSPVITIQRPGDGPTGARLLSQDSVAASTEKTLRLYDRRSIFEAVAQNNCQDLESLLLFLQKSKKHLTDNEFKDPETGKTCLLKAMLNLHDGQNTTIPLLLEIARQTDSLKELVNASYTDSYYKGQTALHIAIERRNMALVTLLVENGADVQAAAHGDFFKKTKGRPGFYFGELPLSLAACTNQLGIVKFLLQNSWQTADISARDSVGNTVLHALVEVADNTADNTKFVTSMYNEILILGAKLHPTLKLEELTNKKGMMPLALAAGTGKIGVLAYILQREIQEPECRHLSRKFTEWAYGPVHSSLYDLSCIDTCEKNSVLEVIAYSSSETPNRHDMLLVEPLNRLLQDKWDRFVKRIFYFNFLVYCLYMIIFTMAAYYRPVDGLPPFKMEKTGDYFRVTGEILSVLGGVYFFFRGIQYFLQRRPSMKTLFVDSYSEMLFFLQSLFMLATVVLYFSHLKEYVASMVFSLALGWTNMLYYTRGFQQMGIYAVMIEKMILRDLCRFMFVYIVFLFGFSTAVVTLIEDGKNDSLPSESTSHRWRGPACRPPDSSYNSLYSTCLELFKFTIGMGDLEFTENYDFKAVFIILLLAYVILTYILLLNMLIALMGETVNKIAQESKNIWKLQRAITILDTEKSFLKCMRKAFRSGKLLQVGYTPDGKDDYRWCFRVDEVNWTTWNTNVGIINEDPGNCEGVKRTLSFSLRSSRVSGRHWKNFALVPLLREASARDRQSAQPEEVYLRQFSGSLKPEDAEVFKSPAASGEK", "test": "Intracellular calcium (Fluo-4, FLIPR) activation of TRPV1 cells by GRAS compounds;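 also: TRPV1-expressing cells, FLIPR fluorescence at 488/514 nm with baseline subtracted, sampled every 2 s for 10 min after adding compound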", "format": "cell-based"}, "[1]": {"settings": "Table 1(a), 1 mM, relative to AITC 30 μM, average of three plates"}, "[2]": {"settings": "Table 1(a), 1 mM, average of three plates, read-out: A1 activation, % of agonist value"}, "[3]": {"settings": "Table 1(a), 1 mM, relative to capsaicin 350 nM, average of three plates, read-out: V1 activation, % of agonist value"}, "[4]": {"settings": "Table 1(b), 1 mM, relative to AITC 30 μM"}}, "note": "Where two headings read alike, the source gives them in different places.", "data": [{"molecule": "CCCCCC/C=C/C=C/C=O", "note": "[Trans,trans-2,4-undecadien-1-al]", "values": [{"measurement": "A1V1 activation, % of agonist value", "setting": "TRPA1V1; Table 1(b), 100 μM (*), relative to AITC 30 μM", "result": 38.4, "unit": "%"}, {"measurement": "A1V1 activation, % of agonist value", "setting": "TRPA1V1; Table 1(c), 1 mM, relative to AITC 30 μM", "result": 85.4, "unit": "%"}, {"measurement": "activation at 100 µM", "setting": "human TRPA1; Table 1(b), 100 μM (*), read-out: A1 activation, % of agonist value", "result": 74, "unit": "%"}, {"measurement": "activation at 1000 µM", "setting": "human TRPA1; Table 1(c), 1 mM, read-out: A1 activation, % of agonist value", "result": 86.4, "unit": "%"}, {"measurement": "activation at 100 µM", "setting": "human TRPV1; Table 1(b), 100 μM (*), relative to capsaicin 350 nM, read-out: V1 activation, % of agonist value", "result": 87.5, "unit": "%"}]}, {"molecule": "CCCCC/C=C/CO", "note": "[Trans-2-Octen-1-ol]", "values": [{"measurement": "A1V1 activation, % of agonist value", "setting": "TRPA1V1; [1]", "result": 103.2, "unit": "%"}, {"measurement": "activation at 1000 µM", "setting": "human TRPA1; [2]", "result": 118, "unit": "%"}, {"measurement": "activation at 1000 µM", "setting": "human TRPV1; [3]", "result": 26, "unit": "%"}]}, {"molecule": "COc1cc(C2OCC(C)O2)ccc1O", "note": "(stereo not drawn) [Vanillin propylene glycol acetal]", "values": [{"measurement": "A1V1 activation, % of agonist value", "setting": "TRPA1V1; [4]", "result": 94.49, "unit": "%"}, {"measurement": "A1 activation, % of agonist value", "setting": "human TRPA1; Table 1(b), 1 mM", "result": 76.21, "unit": "%"}, {"measurement": "V1 activation, % of agonist value", "setting": "human TRPV1; Table 1(b), 1 mM, relative to capsaicin 350 nM", "result": 57.97, "unit": "%"}]}, {"molecule": "CCOCc1ccc(O)c(OC)c1", "note": "[Vanillyl ethyl ether]", "values": [{"measurement": "A1V1 activation, % of agonist value", "setting": "TRPA1V1; [1]", "result": 59.64, "unit": "%"}, {"measurement": "activation at 1000 µM", "setting": "human TRPA1; [2]", "result": 38, "unit": "%"}, {"measurement": "activation at 1000 µM", "setting": "human TRPV1; [3]", "result": 67.6, "unit": "%"}]}, {"molecule": "COc1cc(CCC(C)=O)ccc1O", "note": "[Vanillylacetone]", "values": [{"measurement": "A1V1 activation, % of agonist value", "setting": "TRPA1V1; [4]", "result": 37.75, "unit": "%"}, {"measurement": "activation at 1000 µM", "setting": "human TRPA1; Table 1(b), 1 mM, read-out: A1 activation, % of agonist value", "result": 22.3, "unit": "%"}, {"measurement": "activation at 1000 µM", "setting": "human TRPV1; Table 1(b), 1 mM, relative to capsaicin 350 nM, read-out: V1 activation, % of agonist value", "result": 60, "unit": "%"}]}, {"molecule": "C=CCc1cccc(OC)c1O", "note": "[o-Eugenol]", "values": [{"measurement": "A1V1 activation, % of agonist value", "setting": "TRPA1V1; [1]", "result": 158.3, "unit": "%"}, {"measurement": "A1 activation, % of agonist value", "setting": "human TRPA1; Table 1(a), 1 mM, average of three plates", "result": 128.4, "unit": "%"}, {"measurement": "V1 activation, % of agonist value", "setting": "human TRPV1; Table 1(a), 1 mM, relative to capsaicin 350 nM, average of three plates", "result": 64.5, "unit": "%"}]}, {"molecule": "Desoxycholic acid", "values": [{"measurement": "A1V1 activation, % of agonist value", "setting": "TRPA1V1; Table 1(i), 100 μM (*), relative to AITC 30 μM or capsaicin 350 nM depending on compound, […]", "result": 2.9, "unit": "%"}, {"measurement": "A1 activation, % of agonist value", "setting": "human TRPA1; Table 1(i), 100 μM (*), […]", "result": 3.2, "unit": "%"}, {"measurement": "V1 activation, % of agonist value", "setting": "human TRPV1; Table 1(i), 100 μM (*), relative to capsaicin 350 nM, […]", "result": 84.4, "unit": "%"}, {"measurement": "TRPV1 activation selectivity, in words", "setting": "human TRPV1; statement in description, see Table 1(i)", "result": "TRPV1 activators which do not modulate TRPA1 or TRPA1V1"}]}]}
